According to US6486326B2, “iso-CBI and iso-CI analogs of CC-1065 duocarmycins” (The Scripps Research Institute, priority 1997, dated 2002):

Key:
w836 DNA (146 bp) = assay: DNA alkylation selectivity and efficiency, thermally-induced strand cleavage of w836 DNA; type: biochemical
Protocol: FIG. 6 illustsrates thermally-induced strand cleavage of w836 DNA (146 bp, nucleotide nos. 5189-91): DNA-agent incubation for 24 h ((−)-iso-CBI-TMI) at 25° C., removal of unbound agent and 30 min of thermolysis (100° C.), followed by denaturing 8% PAGE and autoradiography; lane 1, control DNA; lanes 2-5, Sanger G, C, A, and T sequencing reactions; lanes 6-8 (−)-iso-CBI-TMI ([…] to 1×10^−5 M); lanes 9-10, (+)-duocarmycin SA (1×10^−5 to 1×10^−6 M); lanes 11-12, (+)-iso-CBI-TMI (1×10^−2 and 1×10^−3).
DNA Alkylation Selectivity and Efficiency: The DNA alkylation properties of the agents were examined within w794 and w836 duplex DNA for which comparative results are available for related agents. (Boger, D. L., et al., J. Am. Chem. Soc. 1994, 116, 11335; Boger, D. L., et al., J. Am. Chem. Soc. 1994, 116, 6461; and Boger, D. L., et al., J. Am. Chem. Soc. 1995, 117, 11647) The alkylation site identification and the assessment of the relative selectivity among the available sites were obtained by thermally-induced strand cleavage of the singly 5′ end-labeled duplex DNA after exposure to the agents. […]

[1] = tested on: w794 DNA (SV40 DNA segment, 144 bp); conditions: from earlier studies (refs 10, 11); cited from earlier work

SMILES	DNA alkylation sites / selectivity (w836 DNA (146 bp))	DNA alkylation efficiency, less efficient than duocarmycin SA [1]
COc1cc2cc(C(=O)N3CC4CC45C(=O)c4ccccc4C=C35)[nH]c2c(OC)c1OC (single isomer, unassigned; (+)) [(+)-iso-CBI-TMI, 2-[(5,6,7-Trimethoxyindol-2-yl)carbonyl]-1,2,9,9a-tetrahydrocyclopropa[c]benzo[f]indol-8-one]	selectivity identical to that of ent-(-duocarmycin SA	–
COC(=O)[C@]1(C)NC2=C(C1=O)[C@@]13C[C@@H]1CN(C(=O)c1cc4cc(OC)c(OC)c(OC)c4[nH]1)C3=CC2=O [duocarmycin A]	–	ca. 10 ×
